These results are taken from patent US5747505A, “Heterocyclic aryl-, alkyl- and cycloalkylacetamides” (Bayer Aktiengesellschaft, priority 1995, dated 1998).

The test system of the test is release of ApoB-100-associated lipoproteins from HepG2 cells. Description: Inhibition of the release of ApoB-100-associated lipoproteins from cultivated liver cells (HepG2), immunoassay for human LDL. The format is cell-based. The following applies: substance concentration at which light absorption (450 nm) is inhibited by 50% vs solvent control. Here is the method: 1. Inhibition of the release of ApoB-100-associated lipopnoteins
The test for detecting the inhibition of the release of ApoB-100-associatedlipoproteins-from liver cells was carried out in vitro using cultivated liver cells, preferably using cells of the human line HepG2. These cells are grown under standard conditions in medium for the culture of eukaryotic cells, preferably in RPMI 1640 with 10% foetal calf serum. HepG2 cells synthesize and secrete into the culture supernatant ApoB-100-associated lipoprotein particles which in principle are constructed similarly to the VLDL and LDL particles which are to be found in the plasma.
These particles can be detected using an immunoassay for human LDL. This immunoassay is carried out using antibodies which have been induced against human LDL in the rabbit under standard conditions. The anti-LDL antibodies (rabbit anti-LDL Ab) were purified by affinity chromatography on an immunosorbent using human LDL. These purified rabbit anti-LDL Ab are adsorbed on the surface of plastic. Expediently, this adsorption takes place on the plastic surface of microtiter plates having 96 wells, preferably on MaxiSorp plates. If ApoB-100-associated particles are present in the supernatant of Hep-G2 cells, these can bind to the insolubilized rabbit anti-LDL Ab and an immune complex is formed which is bound to the plastic surface. Non-bound proteins are removed by washing. The immune complex on the plastic surface is detected using monoclonal antibodies which have been induced against human LDL and purified according to standard conditions. These antibodies were conjugated with the enzyme peroxidase. Peroxidase converts the colourless substrate TMB into a coloured product in the presence of H2 O2. After acidification of the reaction mixture with H2 SO4, the specific light absorption at 450 nm is determined, which is a measure of the amount of ApoB-100-associated particles which have been secreted into the culture supernatant by the HepG2 cells.
The IC50 value indicates at which substance concentration the light absorption is inhibited by 50% in comparison with the control (solvent control without substance).

Some results are limits rather than exact numbers.

`O=C(N[C@@H](CO)c1ccccc1)C(c1ccc(OCc2ccc3ccccc3n2)s1)C1CCCCCC1` (stereo partly drawn) [Example 1, 2-Cycloheptyl-N-(2-hydroxy-1(R)-phenylethyl)-2-[5-(quinoline-2-ylmethoxy)thiophen-2-yl]acetamide]: the IC50 – broadly, the midpoint of a concentration-inhibition curve – was 195 nM. This lies in the sub-micromolar range.

Molecule `O=C(NCc1ccccc1)C(c1ccccc1)N1CCC(OCc2ccc3ccccc3n2)CC1` (stereo not shown) [Example 2] yielded an IC50 of more than 2000 nM.

For the molecule `O=C(N[C@@H](CO)c1ccccc1)C(c1ccc(OCc2ccccc2Cl)cn1)C1CCCCCC1` (stereo partly shown) [Example 3], the IC50 came out at 71 nM.

`O=C(NCc1ccccc1)C(c1ccc(OCc2ccccc2Cl)cn1)C1CCCCCC1` (stereo not shown) [Example 4] showed an IC50 of 11 nM. This IC50 lies about 6.5-fold lower than the previous one.

For `O=C(N[C@@H](CO)c1ccccc1)C(c1ccc(OCc2ccc3ccccc3n2)cn1)C1CCCC1` (stereo partly shown) [Example 5], the IC50 worked out at 622 nM. This IC50 is about 57-fold higher than that of the molecule before.

`O=C(N[C@@H](CO)c1ccccc1)C(c1ccc(OCc2ccc3ccccc3n2)cn1)C1CCCCCC1` (stereo partly shown) [Example 6] gave a half-inhibitory concentration (IC50) of 255 nM.

`O=C(N[C@@H](CO)c1ccccc1)C(c1ccc2cc(OCc3ccc4ccccc4n3)ccc2c1)C1CCCC1` (stereo partly shown) [Example 8]: the IC50 was determined as 1880 nM. Against the preceding molecule, the IC50 is about 7.4-fold higher.

`O=C(NCC1CCCCC1)C(c1ccc2cc(OCc3ccc4ccccc4n3)ccc2c1)C1CCCC1` (stereo not shown) [Example 9] showed an IC50 of more than 2000 nM.

Take `COc1cc(CNC(=O)C(c2ccc3cc(OCc4ccc5ccccc5n4)ccc3c2)C2CCCC2)ccc1O` (stereo not shown) [Example 10]: the IC50 is more than 2000 nM.

`O=C(N[C@H](CO)c1ccccc1)C(c1ccc2cc(OCc3ccc4ccccc4n3)ccc2c1)C1CCCC1` (stereo partly shown) [Example 11]: the IC50 was more than 2000 nM.

Consider `Cc1ccc(CNC(=O)C(c2ccc3cc(OCc4ccc5ccccc5n4)ccc3c2)C2CCCC2)cc1` (stereo not shown) [Example 12], for which the IC50 was more than 2000 nM.

As to `O=C(N[C@@H](CO)c1ccccc1)[C@H](c1ccc(OCc2ccc3ccccc3n2)cn1)C1CCCCCC1` [Example 13], the IC50 stood at 235 nM.

As to `O=C(N[C@@H](CO)c1ccccc1)[C@@H](c1ccc(OCc2ccc3ccccc3n2)cn1)C1CCCCCC1` [Example 14], inhibition was half-maximal at 235 nM (IC50). This counts as sub-micromolar.
